Values quoted from earlier work in patent US20250170053A1, “LONG-LASTING RESORBABLE SUBCUTANEOUS IMPLANT WITH PROLONGED RELEASE OF PRE-CONCENTRATED PHARMACOLOGICALLY ACTIVE SUBSTANCE IN A POLYMER FOR THE ADJUVANT TREATMENT OF EPILEPSY, CHRONIC PAIN AND ANXIETY, AND METHOD” (priority 2022, published 2025).

How the values were obtained:
[1] = test system: patients with treatment-resistant epilepsy; conditions: 2 to 50 mg/kg/day oral CBD, twelve weeks
rodents = conditions: systemic administration
[2] = test system: healthy volunteers and patients with anxiety disorders; conditions: inverted U-shaped dose-response curve in humans

## C=C(C)[C@@H]1CCC(C)=C[C@H]1c1c(O)cc(CCCCC)cc1O [CBD, cannabidiol]
[1]
  individuals who discontinued treatment due to some adverse event: 3%
  safety and tolerability of the drug: acceptable
[1]; adjunctive therapy, patients aged one to thirty years
  average reduction in seizure frequency: 36.5%
rodents
  effect in the elevated plus-maze test: antianxiety effects
[2]
  anxiolytic activity: significant anxiolytic activity
